In patent US10675602B2, “Spray-drying process” (Bend Research, Inc., priority 2009, dated 2020):

Assay: Room temperature solubility in methanol
Assay type: physicochemical
Details: room temperature (20° C. to 30° C.)

CCC(=O)O[C@]1(C(=O)SCF)[C@H](C)C[C@H]2[C@@H]3C[C@H](F)C4=CC(=O)C=C[C@]4(C)[C@@]3(F)[C@@H](O)C[C@@]21C [Active Agent 1, S-(fluoromethyl) 6α,9-difluoro-11β,17-dihydroxy-16α-methyl-3-oxoandrosta-1,4-diene-17β-carbothioate, 17-propionate]
solubility in methanol: 0.3 wt %
